# Patent publication EP0043274A2, “Antithrombotic treatment” (priority 1980, dated 1982)
# Where “and” joins values, the source holds several entries; their conditions need not be identical. Equal entries are not always repeated.
# Key:
# human plasma = assay: Thrombin time (TT) in vitro, standard method; format: biochemical; conditions: U.S.P. grade, control 12.00
# Protocol: (§1) The effect of U.S.P. grade sodium bisulfite on blood coagulation factors is evaluated by standard procedures (Biggs) and the results are shown in Table III below.
# PROTHROMBIN = biological target: T1, PROTHROMBIN (Homo sapiens, UniProt P00734); assay: Coagulation factor assay (Biggs): prothrombin (Factor II); format: biochemical; conditions: for PROTHROMBIN (%): U.S.P. grade, control 87
# T1 construct: from tissue; host or cells: human plasma
# Protocol: as §1
# (§2) References for PT, PTT, and assays of all the coagulation factors can be found in a standard textbook, entitled "Human Blood Coagulation, Haemostasis and Thrombosis", edited by Rosemary Biggs, published by Blackwell Scientific Publications, Oxford, England (2nd edition), pages 670-705, 1976.
# F VIII = biological target: T2, F VIII (Homo sapiens, UniProt P00451); assay: Coagulation factor assay (Biggs): Factor VIII; format: biochemical; conditions: for F VIII (%): U.S.P. grade, control 57
# T2 construct: from tissue; host or cells: human plasma
# T2 sequence (P00451 20-2351): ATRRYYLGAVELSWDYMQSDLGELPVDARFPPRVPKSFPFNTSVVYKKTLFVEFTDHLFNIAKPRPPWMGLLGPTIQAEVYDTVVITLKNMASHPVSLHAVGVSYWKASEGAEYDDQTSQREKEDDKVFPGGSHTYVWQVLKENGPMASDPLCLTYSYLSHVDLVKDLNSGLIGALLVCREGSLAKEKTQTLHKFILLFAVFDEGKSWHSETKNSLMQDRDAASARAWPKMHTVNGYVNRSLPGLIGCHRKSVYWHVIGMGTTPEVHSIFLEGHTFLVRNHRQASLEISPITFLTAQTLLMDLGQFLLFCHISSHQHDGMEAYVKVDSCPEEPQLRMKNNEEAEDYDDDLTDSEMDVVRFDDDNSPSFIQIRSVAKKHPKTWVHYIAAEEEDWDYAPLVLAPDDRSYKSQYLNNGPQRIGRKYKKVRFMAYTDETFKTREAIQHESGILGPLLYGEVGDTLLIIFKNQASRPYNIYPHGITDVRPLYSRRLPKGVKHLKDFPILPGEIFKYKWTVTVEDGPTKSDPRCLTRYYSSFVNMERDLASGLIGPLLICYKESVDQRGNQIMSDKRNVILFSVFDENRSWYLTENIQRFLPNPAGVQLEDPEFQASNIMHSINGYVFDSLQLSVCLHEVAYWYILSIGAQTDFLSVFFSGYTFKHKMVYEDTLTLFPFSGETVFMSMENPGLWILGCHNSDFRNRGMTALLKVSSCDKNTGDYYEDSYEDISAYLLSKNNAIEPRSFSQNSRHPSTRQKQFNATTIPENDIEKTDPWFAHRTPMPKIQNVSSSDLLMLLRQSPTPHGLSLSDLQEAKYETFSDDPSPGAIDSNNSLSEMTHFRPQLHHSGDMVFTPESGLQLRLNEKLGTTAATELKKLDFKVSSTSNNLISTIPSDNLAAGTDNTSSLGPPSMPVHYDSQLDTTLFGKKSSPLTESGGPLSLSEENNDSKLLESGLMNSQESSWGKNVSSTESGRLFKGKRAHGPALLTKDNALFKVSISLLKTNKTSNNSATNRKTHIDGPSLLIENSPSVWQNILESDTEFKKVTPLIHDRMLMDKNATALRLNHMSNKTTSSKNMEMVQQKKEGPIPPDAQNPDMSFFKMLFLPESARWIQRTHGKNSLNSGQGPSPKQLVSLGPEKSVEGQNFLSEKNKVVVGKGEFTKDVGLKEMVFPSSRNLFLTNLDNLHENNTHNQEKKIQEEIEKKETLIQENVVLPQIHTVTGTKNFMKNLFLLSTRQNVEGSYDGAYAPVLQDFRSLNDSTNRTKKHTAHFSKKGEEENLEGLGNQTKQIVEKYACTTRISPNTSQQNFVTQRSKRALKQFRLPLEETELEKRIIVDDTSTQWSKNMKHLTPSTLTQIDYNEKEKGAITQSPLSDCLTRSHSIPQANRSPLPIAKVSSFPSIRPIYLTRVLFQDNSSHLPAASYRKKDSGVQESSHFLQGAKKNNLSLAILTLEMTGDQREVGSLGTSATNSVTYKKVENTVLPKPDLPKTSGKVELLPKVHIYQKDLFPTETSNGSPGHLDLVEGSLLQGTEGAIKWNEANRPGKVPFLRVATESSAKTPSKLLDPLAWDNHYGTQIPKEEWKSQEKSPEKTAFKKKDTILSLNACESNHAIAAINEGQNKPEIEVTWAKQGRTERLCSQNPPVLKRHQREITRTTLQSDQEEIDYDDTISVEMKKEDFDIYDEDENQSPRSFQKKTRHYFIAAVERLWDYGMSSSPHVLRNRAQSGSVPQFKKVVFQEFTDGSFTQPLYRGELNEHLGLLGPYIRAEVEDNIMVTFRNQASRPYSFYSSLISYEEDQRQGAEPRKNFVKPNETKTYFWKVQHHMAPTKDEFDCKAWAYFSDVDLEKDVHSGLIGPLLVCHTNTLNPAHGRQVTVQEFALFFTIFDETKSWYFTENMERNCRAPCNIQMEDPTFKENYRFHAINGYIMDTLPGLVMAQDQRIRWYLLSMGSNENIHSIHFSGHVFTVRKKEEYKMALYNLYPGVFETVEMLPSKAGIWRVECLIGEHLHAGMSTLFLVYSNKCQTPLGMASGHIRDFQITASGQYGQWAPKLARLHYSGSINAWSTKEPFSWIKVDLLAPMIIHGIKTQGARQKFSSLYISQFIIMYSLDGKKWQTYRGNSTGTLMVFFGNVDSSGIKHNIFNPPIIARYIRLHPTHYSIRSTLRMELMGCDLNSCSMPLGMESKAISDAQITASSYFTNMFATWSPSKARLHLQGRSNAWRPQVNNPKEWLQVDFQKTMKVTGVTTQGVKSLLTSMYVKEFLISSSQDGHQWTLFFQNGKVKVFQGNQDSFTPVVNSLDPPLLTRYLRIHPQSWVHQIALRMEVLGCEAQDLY
# Protocol: as §1, §2
# RATS = assay: Rats fed bait containing 0.5% sodium bisulfite; format: in vivo
# Text: Five rats, each in a separate cage, were given a bait containing 0.5 percent by weight of sodium bisulfite. The bait consisted of cracked grains (wheat, corn, millet, and corn meal). The amounts of bait eaten are summarized for an eleven day period.
# blood = assay: Storage of blood samples with added sodium bisulfite solution; set-up: species or system human; conditions: about 4 cc blood + about 10 drops of 10 weight percent solution; about 2 1/2 years at ambient temperatures
# Protocol: Samples of about 4 cc each of blood were prepared. To each of these was added about 10 drops of a solution 10 weight percent and sodium bisulfite in distilled water. Each sample was then sealed into a glass vial.
# platelet rich plasma = assay: Platelet aggregation in platelet rich plasma from injected rabbit (ex vivo); conditions: injected with about 72 mg/kg of body weight; blood sample after 5 hours
# Protocol: (§3) A rabbit is injected with about +72 mg/kg of body weight of triethyl amine bisulfite. After a period of 5 hours, a blood sample was withdrawn and centrifuged at 1000 r.p.m. (220 g) for 10 minutes to give a platelet rich plasma. […] It is concluded that triethyl amine bisulfite is an agent which inhibits thrombotic condition formation in vivo.
# as §3, with “72” for “+72”, “sodium formaldehyde” for “triethyl amine”, “minuts” for “minutes”, “thrombus” for “thrombotic condition”
# FIBRINOGEN = biological target: T3, FIBRINOGEN (Homo sapiens, UniProt P02671+P02675+P02679); assay: Coagulation factor assay (Biggs): fibrinogen; format: biochemical; conditions: mean of 2 experiments; control 205
# T3 construct: from tissue; host or cells: human plasma
# T3 sequence (P02671 20-629 limits assumed): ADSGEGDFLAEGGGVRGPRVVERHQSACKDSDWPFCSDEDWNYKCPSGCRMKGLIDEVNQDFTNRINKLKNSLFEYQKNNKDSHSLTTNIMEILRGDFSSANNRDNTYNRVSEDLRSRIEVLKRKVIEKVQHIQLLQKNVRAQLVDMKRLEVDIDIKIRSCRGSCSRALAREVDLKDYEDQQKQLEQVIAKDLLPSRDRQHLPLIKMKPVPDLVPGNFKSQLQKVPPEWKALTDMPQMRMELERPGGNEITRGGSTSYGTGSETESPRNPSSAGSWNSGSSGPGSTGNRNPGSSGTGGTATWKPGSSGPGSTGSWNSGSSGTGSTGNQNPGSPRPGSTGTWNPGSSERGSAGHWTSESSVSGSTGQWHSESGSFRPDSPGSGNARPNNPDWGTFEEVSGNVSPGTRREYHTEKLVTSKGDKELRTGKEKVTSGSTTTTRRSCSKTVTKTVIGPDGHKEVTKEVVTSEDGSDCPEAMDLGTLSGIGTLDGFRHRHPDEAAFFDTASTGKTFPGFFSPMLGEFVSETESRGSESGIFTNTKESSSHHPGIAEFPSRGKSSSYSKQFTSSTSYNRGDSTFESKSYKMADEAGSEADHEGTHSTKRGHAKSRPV
# T3 sequence (P02675 31-491): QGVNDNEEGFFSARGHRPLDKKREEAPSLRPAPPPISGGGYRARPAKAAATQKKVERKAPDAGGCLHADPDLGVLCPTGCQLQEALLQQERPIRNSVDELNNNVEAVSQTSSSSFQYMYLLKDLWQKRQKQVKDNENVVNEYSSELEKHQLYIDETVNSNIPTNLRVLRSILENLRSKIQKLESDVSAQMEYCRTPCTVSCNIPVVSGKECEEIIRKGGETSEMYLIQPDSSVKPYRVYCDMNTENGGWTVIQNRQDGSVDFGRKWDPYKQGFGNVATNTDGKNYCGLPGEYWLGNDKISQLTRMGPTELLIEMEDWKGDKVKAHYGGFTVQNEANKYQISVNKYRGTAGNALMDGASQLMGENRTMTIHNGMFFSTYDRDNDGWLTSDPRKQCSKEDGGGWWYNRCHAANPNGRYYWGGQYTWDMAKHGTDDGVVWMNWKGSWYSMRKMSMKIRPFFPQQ
# T3 sequence (P02679 27-453): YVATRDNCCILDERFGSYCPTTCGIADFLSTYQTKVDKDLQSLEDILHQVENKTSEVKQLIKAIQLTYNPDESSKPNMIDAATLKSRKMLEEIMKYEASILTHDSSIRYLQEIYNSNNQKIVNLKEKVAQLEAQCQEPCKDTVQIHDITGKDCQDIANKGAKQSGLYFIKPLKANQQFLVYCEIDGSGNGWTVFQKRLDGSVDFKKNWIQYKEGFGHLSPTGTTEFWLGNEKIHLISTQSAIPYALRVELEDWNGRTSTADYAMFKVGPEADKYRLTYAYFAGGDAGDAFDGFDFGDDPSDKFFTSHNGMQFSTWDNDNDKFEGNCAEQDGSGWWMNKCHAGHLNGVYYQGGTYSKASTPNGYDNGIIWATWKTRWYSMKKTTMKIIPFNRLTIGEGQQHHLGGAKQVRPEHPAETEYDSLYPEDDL
compound,measurement,setting,value
Sodium bisulfite,TT,human plasma; 0.01 mg/ml,12.07 s
same,TT,human plasma; 0.05 mg/ml,12.10 s
same,TT,human plasma; 0.1 mg/ml,12.00 s
same,TT,human plasma; 0.5 mg/ml,13.97 s
same,TT,human plasma; 1.0 mg/ml,16.08 s
same,TT,human plasma; 5.0 mg/ml,34.3 s
same,effect on Factor II,PROTHROMBIN,mildly affected
same,PROTHROMBIN (%),PROTHROMBIN; 0.01 mg/ml,79%
same,PROTHROMBIN (%),PROTHROMBIN; 0.05 mg/ml,80%
same,PROTHROMBIN (%),PROTHROMBIN; 0.1 mg/ml,72%
same,PROTHROMBIN (%),PROTHROMBIN; 0.5 mg/ml,40%
same,PROTHROMBIN (%),PROTHROMBIN; 1.0 mg/ml,26%
same,PROTHROMBIN (%),PROTHROMBIN; 5.0 mg/ml,5%
same,effect on Factor VIII,F VIII,mildly affected
same,F VIII (%),F VIII; 0.01 mg/ml,62%
same,F VIII (%),F VIII; 0.05 mg/ml,68%
same,F VIII (%),F VIII; 0.1 mg/ml,55%
same,F VIII (%),F VIII; 0.5 mg/ml,58%
same,F VIII (%),F VIII; 1.0 mg/ml,29%
same,F VIII (%),F VIII; 5.0 mg/ml,11%
same,mortality,"RATS; 2 days, rats 1 and 4",DIED
same,FIRST DAY BLOOD FACTOR PT,RATS; rat 5,27
same,"FIRST DAY BLOOD FACTOR PT, increase",RATS; rats 1-3,26% increase and 24% increase and 28% increase
same,coagulation of stored blood samples,blood,have not coagulated
"CCN(CC)CC.O=S(O)O [TRIETHYL AMINE BISULFITE, triethyl amine bisulfite]",aggregation of platelets in comparison with an untreated rabbit,platelet rich plasma,markedly decreased
C[N+](C)(C)C [Tetramethyl-ammonium bisulfite],Fibrinogen (%),FIBRINOGEN,170%
